Experiments:
[1] = test system: Salmon Sperm DNA; assay: Binding of drug to duplex (NACS column); details: saturation; initial CC-1065/nucleotide 0.1; 37° C., 4 hr
Description: Oligodeoxyribonucleotides were obtained by chemical synthesis through standard techniques on an automated synthesizer located in the Department of Veterinary Microbiology and Parasitology at Louisiana State University. Antisense MP and PS oligonucleotides were obtained from commercial sources, as was synthetic sense RNA. Poly(rA) was obtained from Sigma Chemical Co. CC-1065 was obtained from the Upjohn Company. Oligonucleotides (0.075 μmol-P each) were mixed in 0.36 ml 0.01 M Na cacodylate buffer, pH 7.2, with CC-1065 in dimethyl formamide (0.04 ml), or with dimethylformamide only. (Note that “μmol-P” denotes μmoles of phosphate; i.e., μmoles of nucleotide bases, rather than of oligonucleotides per se.) Incubations of complementary strands, with or without drug, were carried out at 37° C. for 4 hr. In the initial experiments, unbound drug was separated from nucleotide duplexes by ethanol precipitation. Equivalent results were obtained by trapping the oligonucleotides and CC-1065 on NACS-52 columns, and washing first with low-salt buffer and then with buffer containing 1M NaCl. […] Samples prepared in this manner could be directly used for determination of binding of the drug to the nucleic acid (as measured by the A365/A260 ratio), with the extinction of CC-1065 absorbance at 365 nm taken as 48,000, and the extinction of the nucleic acid absorption at 260 nm based on its composition. […]

[2] = test system: single-stranded materials; assay: Binding of drug to single strands; details: under the conditions used
Text: When methyl phosphonate and synthetic RNA were used, the purities of the crude oligonucleotides were taken to be about 30%, based on the data sheet prepared by the supplier. (The remainder comprised primarily truncated sequences.) Appropriate excess amounts of these agents were included in the reactions to ensure helix formation. The corresponding sense or antisense oligonucleotides were maintained at 0.075 μmol-P in the reaction. […] Unpurified materials were used in these preliminary studies because of the relatively high cost of purified oligoribonucleotides. The majority of the contributions to A260 for these samples should be due to material that was not duplexed.

[3] = test system: DNA sense (SEQ ID NO. 1) / DNA-PO antisense duplex (PO-PO); assay: Duplex strand separation temperature (Tm); assay type: binding, equine infectious anemia retrovirus
Description: Samples for determining Tm were also obtained by the above procedures. […] Thus the effects of this agent on Tm were carried out with Distamycin in solution with the duplexes tested.
Tm's were determined on a Gilford 2400 Spectrophotometer set at 260 nm, with a 4-chamber Peltier-based temperature controller. Temperature was ramped linearly at 0.5° C./min. Absorbance data were acquired with a 12-bit A/D converter, and data were processed with Lotus 123W and SigmaPlot software. Tm values were determined from the plots as the midpoint of the thermal transitions.

[4] = test system: mRNA of a fragment of the env gene of EIAV; assay: In vitro translation (wheat-germ extract, 35S-methionine); assay type: biochemical; details: 1.95 μg mRNA; antisense about 3 times mRNA sense; CC-1065 3 times antisense; scintillation spectrometry
Description: The in vitro translation studies were performed as follows. A fragment of DNA from the env gene of EIAV was transcribed with an SP-6 polymerase kit, and the resulting mRNA (approximately 600 bases long) was capped and isolated. The transcribed fragment included the target sequence 5′-[…]-3′ (SEQ ID NO. 3) (the CC-1065 binding site is underlined). The corresponding antisense sequence (using normal phosphodiester chemistry) was 5′-[…]-3′ (SEQ ID NO. 4). Translation was performed with a wheat-germ extract (Promega) in the presence of ^35S-methionine. The mRNA's were divided into approximately 2 μg aliquots, and treated according to the protocols listed for Table 3 below. Treated mRNA was separated from small molecules (such as DMSO and CC-1065) with a Sephadex 50-based NICK column. Translation was carried out in 25 μl of buffer containing the wheat germ translation system; the isolated mRNA; amino acids, including the labelled methionine; and RNAsin, an inhibitor of RNase. The proteins produced were divided into two aliquots. One aliquot was fractionated by SDS-PAGE, followed by autoradiography; and the other was analyzed by scintillation spectrometry. The concentrations of antisense oligomers and CC-1065 in the free-solution chemistries were relatively high compared to the sense target, to optimize duplex formation and drug binding. […] The following pairs were different at the P<0.05 level by Student's t-test (unpaired analysis): 1,5; 2,5; 3,4; 3,5; 4,5.

[5] = test system: poly(dA)-poly(dT); details: reported, cited from earlier work

Compound: COc1c(O)c2c(c3cc(C(=O)N4CCc5c4c(O)c(OC)c4[nH]c(C(=O)N6CC7CC78C6=CC(=O)c6[nH]cc(C)c68)cc54)[nH]c13)CCN2C(N)=O (stereo not drawn) [CC-1065]
- Approx. No. CC-1065 Bound/20 Base Pairs [1]: ~2
- Binding to single-stranded materials [2]: found not to bind to single-stranded materials
- Tm ([3]; CC-1065 initial D/N = 0.025, 1M NaCl eluate): 81.7 ± 0.6^4 °C
- Tm ([3]; CC-1065 initial D/N = 0.1, minimum Tm estimate (melting not completed)): ≥ 85.3 ± 2.3^4,5 °C
- Duplex Strand Separation Temperature ([3]; DNA / DNA-PO, drug-bound duplex (Table 6)): ≥ 85.3 ± 2.3^4
- Tm Elevation ([3]; PO-PO, highest level of binding obtained): 17.3 °C
- DPM S-35 ± standard error [4]: 133.040 ± 13.227 DPM
- Tm ([5]; CC-1065 bound): ~100 °C
- Increase in Tm ([5]; under the conditions of the experiment): over 30 °C

Source: USRE38169E1, “Hyperstabilizing antisense nucleic acid binding agents” (priority 1993, dated 2003)
